Experimental data: patent US20180298344A1, “Realistic Humanized Model of Disease Matrix Environment for Evaluation of Therapeutic Reversal or Cell Fate” (Yale University, priority 2017, published 2018)

Assays:
[1] = system: human microvascular pericytes (PC) on decellularized healthy lungs; experiment: PC on decellularized control human lung scaffolds, TGF-β1 activation with or without nintedanib: histology, α-SMA IHC, tensile testing; type: cell-based
Description: Lung sections were decellularized as previously described (Sun et al., Am J Physiol Lung Cell Mol Physiol, 2014, 306:L463-475; Petersen et al., Science, 2010, 329:538-541). Briefly, the lung pieces were snap frozen, sliced to 2 mm thickness, and rinsed with PBS containing sodium nitroprusside (SNP). The slices were decellularized with 8 mM CHAPS (Sigma-Aldrich, St Louis, Mo., USA), 1M NaCl, and 25 mM EDTA at 37° C. overnight. The slices were treated with 90 U/mL benzonase nuclease (Sigma) for 1 hour and stored in PBS containing 10% penicillin/streptomycin and 2% Gentamicin at 4° C. until the time of culture. For solubilization, the tissue slices were rinsed with PBS, frozen, and lyophilized. The lyophilized pieces were ground to a fine powder using a tissue grinder and digested with 1 mg/mL pepsin (Sigma) in 0.1 M HCl for 72 hours (DeQuach et al., PLoS One, 2010, 5:e13039).
Samples were fixed in 4% paraformaldehyde for 1 hour, dehydrated, embedded in paraffin, and sectioned into 5μm thick slices. Sections were stained with Masson's Trichrome, picrosirius red, and α-smooth muscle actin (SMA) by the Yale Histology Core Facility.
Decellularized lung samples from control and IPF subjects, as well as polyacrylamide hydrogels of varying crosslinking density, were analyzed using an Instron 5848 with a 10N load cell. Elongation was assessed by cross-head displacement. Strips of 10 mm (length)×1 (width) mm, measured with a digital caliper were affixed to grips and pulled until failure at a strain rate of 1%/sec. For lung samples, parenchymal regions were analyzed, and the pleura was avoided. Hydration of samples with PBS was maintained before and during the mechanical conditioning. Using sample dimensions, engineering stress and strain were calculated using the following equations:
σ=stress, F=Force, A0=initial area, ε=strain, lf=final length, l0=initial length. The Young's Modulus for the tissue was determined by dividing the engineering stress σ, by the engineering strain ε at 20% strain, within the normal range of lung inflation. Mechanical properties of the polyacrylamide hydrogels were also analyzed using a modified model of the Hertz equation using a custom made apparatus (FIG. 3) (Lauridsen et al., Technology, 2014, 2:133).
For short term (7 day) differentiation studies, PC (passage 3-7) were seeded on healthy or IPF lung tissue slices, polyacrylamide hydrogels, or 25 mm glass coverslips (VWR) at 100×10^3 cells per sample and activated with control media (non-activated), or 1 ng/mL TGF-β1 (PeproTech, Rocky Hill, N.J., USA) for 7 days (18, 19). For bleomycin activation, the cells were activated with 1 μg/mL bleomycin sulfate (Cayman Chemical, Ann Arbor, Mich.) for 1 day and the media was replaced with non-activated media for the remaining 6 days (Sava et al., Microcirculation, 2015, 22:54-67; Sterling et al., J Bio Chem, 1983, 258:14438-14444). TGF-β1 and bleomycin concentrations were based on reports consistent with activation of fibroblasts (Sava et al., Microcirculation, 2015, 22:54-67; Maroni and Davis, Bio Reprod, 2012, 87:127). Treatment with CCG-1423 (Sigma) was performed at day 0 for the full 7 days, and labeled as early treatment, or at day 7 and performed for 7 days, and labeled as late treatment. […]

[2] = system: human microvascular pericytes (PC); experiment: Gelatinase zymography of active MMP2 and MMP9 from TGF-β1-activated PC with or without nintedanib; type: cell-based
[3] = system: human microvascular pericytes (PC); experiment: ELISA of MMPs in supernatant of TGF-β1-activated PC with or without nintedanib; type: cell-based; conditions: nintedanib versus TGF-β1 alone
[4] = system: tumor; conditions: by reducing PC coverage; cited from earlier work

| Compound | matrix density and collagen I content ([1]; nintedanib, TGF-β1-activated PC on decellularized healthy lung) | reduction in the number of PC expressing α-SMA ([1]; nintedanib, TGF-β1-activated PC on decellularized healthy lung, IHC, P<0.0001) | elastic modulus of the scaffold ([1]; nintedanib, P=0.44 compared with control lung, P=0.001 compared with TGF-β1 without nintedanib) | generation of active MMP9 ([2]; P<0.01) | generation of active MMP2 ([2]; P<0.05) | expression of MMP10 [3] | MMP13 in supernatant ([3]; P<0.001) | MMP9 in supernatant ([3]; P<0.01) | MMP8 in supernatant ([3]; P<0.05) | tumor growth [4] | ECM density and collagen I crosslinking ([1]; 28 days of TGF-β1, Masson's trichrome and Picosirius red staining) | increase in the elastic modulus of the scaffold ([1]; 28 days of TGF-β1, PC on decellularized healthy lung, P=0.001) |
| --- | --- | --- | --- | --- | --- | --- | --- | --- | --- | --- | --- | --- |
| COC(=O)c1ccc2c(c1)NC(=O)/C2=C(\Nc1ccc(N(C)C(=O)CN2CCN(C)CC2)cc1)c1ccccc1 [nintedanib] | reduction | 90.1% | reversion of the elastic modulus to baseline levels | enhanced | enhanced | did not increase | substantial increases | substantial increases | substantial increases | inhibit tumor growth | – | – |
| TGF-β1: transforming growth factor (TGF)-β1, fibrotic activator, used at 1 ng/mL | – | – | – | – | – | – | – | – | – | – | increased | 8.6 fold |
